Tests used:
NRAS G12C = NRAS G12C (Homo sapiens (Human), UniProt P01111+P62937, G12C); assay: Ras-Raf (BRAF RBD) disruption / FRET / MOA assay, NRAS G12C; format: biochemical; conditions: read-out: IC50* NRAS G12C FRET data
How it was run: (§1)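 TR-FRET read-out: a drop in ratio relative to DMSO wells marks disruption of the Ras:RAF complex, reported as IC50. Compounds (3-fold series, 10 points, top 30 μM final) incubated 3 h at 25° C before Eu-anti-His 10 nM and APC-anti-GST 50 nM, 1.5 h more.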

KRAS G12D = KRAS G12D (Homo sapiens (Human), UniProt P01116+P62937, G12D); assay: Ras-Raf (BRAF RBD) disruption / FRET / MOA assay, KRAS G12D; format: biochemical; conditions: Ras-Raf disruption/FRET/MOA assay; class symbols; read-out: KRAS G12D FRET data IC50
Sequence of KRAS G12D (P01116-2 other isoform, or with tags, fused parts or gaps G12D): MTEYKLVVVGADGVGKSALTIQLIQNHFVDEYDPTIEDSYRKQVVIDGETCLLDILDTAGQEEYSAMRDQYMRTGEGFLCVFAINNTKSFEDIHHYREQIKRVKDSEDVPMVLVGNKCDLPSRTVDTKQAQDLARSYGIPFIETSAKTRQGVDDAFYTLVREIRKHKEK
Sequence of KRAS G12D (P62937 whole entry): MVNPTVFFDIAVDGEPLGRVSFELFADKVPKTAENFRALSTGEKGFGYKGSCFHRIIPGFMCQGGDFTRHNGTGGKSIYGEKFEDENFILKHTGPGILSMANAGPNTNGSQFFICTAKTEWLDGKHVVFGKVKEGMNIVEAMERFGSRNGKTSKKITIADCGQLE
How it was run: as §1

K-Ras G13C = K-Ras G13C (Homo sapiens (Human), UniProt P01116+P62937, G13C); assay: Ras-Raf (BRAF RBD) disruption / FRET / MOA assay, KRAS G13C; format: biochemical; conditions: KRAS G13C; Ras-Raf disruption/FRET/MOA assay; read-out: IC50* KRAS G13C FRET data
Sequence of K-Ras G13C (P01116-2 other isoform, or with tags, fused parts or gaps G13C): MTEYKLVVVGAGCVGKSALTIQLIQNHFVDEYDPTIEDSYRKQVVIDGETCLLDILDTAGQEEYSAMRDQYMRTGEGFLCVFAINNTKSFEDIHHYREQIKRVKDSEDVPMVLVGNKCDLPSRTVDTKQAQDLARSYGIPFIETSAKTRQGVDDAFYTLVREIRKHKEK
Sequence of K-Ras G13C (P62937 whole entry): as the sequence (P62937 whole entry) above
How it was run: as §1

KRAS G13D = KRAS G13D (Homo sapiens (Human), UniProt P01116+P62937, G13D); assay: Ras-Raf (BRAF RBD) disruption / FRET / MOA assay, KRAS G13D; format: biochemical; conditions: read-out: IC50* KRAS G13D FRET data
Sequence of KRAS G13D (P01116-2 other isoform, or with tags, fused parts or gaps G13D): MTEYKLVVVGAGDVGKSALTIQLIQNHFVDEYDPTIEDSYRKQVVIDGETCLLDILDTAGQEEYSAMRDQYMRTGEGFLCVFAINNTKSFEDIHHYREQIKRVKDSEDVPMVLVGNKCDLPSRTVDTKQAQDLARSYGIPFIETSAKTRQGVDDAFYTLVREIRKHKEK
Sequence of KRAS G13D (P62937 whole entry): as the sequence (P62937 whole entry) above
How it was run: as §1

KRAS G12S = KRAS G12S (Homo sapiens (Human), UniProt P01116+P62937, G12S); assay: Ras-Raf (BRAF RBD) disruption / FRET / MOA assay, KRAS G12S; format: biochemical; conditions: Ras-Raf disruption/FRET/MOA assay; class symbols; read-out: KRAS G12S FRET data IC50
Sequence of KRAS G12S (P01116-2 other isoform, or with tags, fused parts or gaps G12S): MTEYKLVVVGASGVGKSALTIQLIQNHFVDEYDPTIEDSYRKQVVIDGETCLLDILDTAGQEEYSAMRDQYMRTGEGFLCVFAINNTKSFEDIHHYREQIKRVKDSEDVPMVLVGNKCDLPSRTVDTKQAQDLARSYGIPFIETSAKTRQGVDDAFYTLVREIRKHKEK
Sequence of KRAS G12S (P62937 whole entry): as the sequence (P62937 whole entry) above
How it was run: as §1

KRAS G12V = KRAS G12V (Homo sapiens (Human), UniProt P01116+P62937, G12V); assay: Ras-Raf (BRAF RBD) disruption / FRET / MOA assay, KRAS G12V; format: biochemical; conditions: read-out: IC50* KRAS G12V FRET data
Sequence of KRAS G12V (P01116-2 other isoform, or with tags, fused parts or gaps G12V): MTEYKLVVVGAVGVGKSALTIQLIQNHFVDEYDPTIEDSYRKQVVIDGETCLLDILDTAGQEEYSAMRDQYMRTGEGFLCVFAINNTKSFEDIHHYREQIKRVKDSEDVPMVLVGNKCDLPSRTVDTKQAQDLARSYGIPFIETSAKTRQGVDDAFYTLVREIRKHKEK
Sequence of KRAS G12V (P62937 whole entry): as the sequence (P62937 whole entry) above
How it was run: as §1

K-Ras G12C = K-Ras G12C (Homo sapiens (Human), UniProt P01116+P62937, G12C); assay: Ras-Raf (BRAF RBD) disruption / FRET / MOA assay, KRAS G12C; format: biochemical; conditions: KRAS G12C; Ras-Raf disruption/FRET/MOA assay; read-out: IC50* KRAS G12C FRET data
Sequence of K-Ras G12C (P01116-2 other isoform, or with tags, fused parts or gaps G12C): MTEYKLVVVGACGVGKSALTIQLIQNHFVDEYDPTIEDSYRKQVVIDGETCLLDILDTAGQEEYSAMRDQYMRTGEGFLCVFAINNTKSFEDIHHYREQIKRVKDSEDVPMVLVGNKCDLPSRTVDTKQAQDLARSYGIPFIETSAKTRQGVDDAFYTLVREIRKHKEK
Sequence of K-Ras G12C (P62937 whole entry): as the sequence (P62937 whole entry) above
How it was run: as §1

KRAS WT = KRAS WT (Homo sapiens (Human), UniProt P01116+P62937); assay: Ras-Raf (BRAF RBD) disruption / FRET / MOA assay, KRAS WT; format: biochemical; conditions: read-out: IC50* KRAS WT FRET data
Sequence of KRAS WT (P01116-2 other isoform, or with tags, fused parts or gaps): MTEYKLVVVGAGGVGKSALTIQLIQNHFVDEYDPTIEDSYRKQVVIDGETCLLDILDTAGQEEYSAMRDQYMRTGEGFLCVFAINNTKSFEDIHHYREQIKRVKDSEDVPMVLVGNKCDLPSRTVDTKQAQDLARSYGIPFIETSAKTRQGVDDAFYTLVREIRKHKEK
Sequence of KRAS WT (P62937 whole entry): as the sequence (P62937 whole entry) above
How it was run: as §1

NCI-H358 (K-Ras G12C) = assay: CellTiter-Glo cell viability assay, NCI-H358; format: cell-based, human; conditions: Homo sapiens, NCI-H358, 120 h, NCI-H358, 5-day treatment; class symbols; read-out: Additional H358 Cell Viability assay data (K-Ras G12C, IC50)
How it was run: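 Cells seeded, compound added directly, 5-day exposure. Plates to RT ~30 min, CellTiter-Glo luminescence read. Normalized to DMSO avg (x100); 4-parameter logistic fit.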

[1] = system: NCI-H358 cells (K-Ras G12C); assay: Potency assay: pERK in NCI-H358 cells; format: cell-based, human; conditions: Homo sapiens, NCI-H358; H358 KRAS G12C; read-out: pERK EC50
How it was run: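 pERK decrease read by AlphaLISA SureFire p-ERK1/2 or In-Cell Western after 4 h compound exposure at 37 °C, 5% CO2.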

Sequence of NRAS G12C (P01111 whole entry G12C): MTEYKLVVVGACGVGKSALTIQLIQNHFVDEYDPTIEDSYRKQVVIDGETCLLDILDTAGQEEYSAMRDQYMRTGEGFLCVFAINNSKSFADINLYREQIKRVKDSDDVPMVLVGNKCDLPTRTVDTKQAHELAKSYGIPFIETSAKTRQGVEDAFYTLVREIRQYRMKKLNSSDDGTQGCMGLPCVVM
Sequence of NRAS G12C (P62937 whole entry): as the sequence (P62937 whole entry) above

Structure (SMILES)	IC50 (NRAS G12C)	IC50 (KRAS G12D)	IC50 (K-Ras G13C)	IC50 (KRAS G13D)	IC50 (KRAS G12S)	IC50 (KRAS G12V)	IC50 (K-Ras G12C)	IC50 (KRAS WT)	IC50 (NCI-H358 (K-Ras G12C))	EC50 [1]
C=CC(=O)N1CCN(C(=O)N(C)[C@H](C(=O)N[C@H]2Cc3nc(cs3)-c3ccc4c(c3)c(c(-c3cccnc3[C@H](C)OC)n4CC)CC(C)(C)COC(=O)[C@@H]3CCCN(N3)C2=O)C(C)C)[C@@H](C)C1 (atropisomer, axis not shown) [Example A421]	10 to 100 nM	1000 to 10000 nM	10 to 100 nM	100 to 1000 nM	100 to 1000 nM	100 to 1000 nM	10 to 100 nM	100 to 1000 nM	10 to 100 nM	< 5000 nM
C=CC(=O)NC[C@@H]1CCN1C(=O)N(C)[C@H](C(=O)N[C@H]1Cc2nc(cs2)-c2ccc3c(c2)c(c(-c2cccnc2[C@H](C)OC)n3CC)CC(C)(C)COC(=O)[C@@H]2CCCN(N2)C1=O)C(C)C (atropisomer, axis not shown) [Example A422]	100 to 1000 nM	1000 to 10000 nM	100 to 1000 nM	1000 to 10000 nM	1000 to 10000 nM	1000 to 10000 nM	100 to 1000 nM	1000 to 10000 nM	10 to 100 nM	< 5000 nM
CC#CC(=O)N1CC[C@@]2(CCN([C@H](C(=O)N[C@H]3Cc4cccc(c4)-c4ccc5c(c4)c(c(-c4cccnc4[C@H](C)OC)n5CC)CC(C)(C)COC(=O)[C@@H]4CCCN(N4)C3=O)C(C)C)C2=O)C1 (atropisomer, axis not shown) [Example A426]	1000 to 10000 nM	> 10000 nM	1000 to 10000 nM	> 10000 nM	1000 to 10000 nM	1000 to 10000 nM	100 to 1000 nM	1000 to 10000 nM	10 to 100 nM	< 5000 nM
C=CC(=O)N1C[C@H](C)N(C(=O)N(C)[C@H](C(=O)N[C@H]2Cc3nc(cs3)-c3ccc4c(c3)c(c(-c3cccnc3[C@H](C)OC)n4CC)CC(C)(C)COC(=O)[C@@H]3CCCN(N3)C2=O)C(C)C)C[C@H]1C (atropisomer, axis not shown) [Example A430]	100 to 1000 nM	1000 to 10000 nM	100 to 1000 nM	1000 to 10000 nM	100 to 1000 nM	1000 to 10000 nM	100 to 1000 nM	100 to 1000 nM	10 to 100 nM	< 5000 nM
C=CC(=O)N1CC2(C1)CN(C(=O)N(C)[C@H](C(=O)N[C@H]1Cc3nc(cs3)-c3ccc4c(c3)c(c(-c3cccnc3[C@H](C)OC)n4CC)CC(C)(C)COC(=O)[C@@H]3CCCN(N3)C1=O)C(C)C)CCO2 (atropisomer, axis not shown) [Example A431]	100 to 1000 nM	1000 to 10000 nM	100 to 1000 nM	1000 to 10000 nM	100 to 1000 nM	100 to 1000 nM	100 to 1000 nM	100 to 1000 nM	10 to 100 nM	< 5000 nM
C=CC(=O)N1CCN(C(=O)N(C)[C@H](C(=O)N[C@H]2Cc3nc(cs3)-c3ccc4c(c3)c(c(-c3cccnc3[C@H](C)OC)n4CC)CC(C)(C)COC(=O)[C@@H]3CCCN(N3)C2=O)C(C)C)C[C@H]1C (atropisomer, axis not shown) [Example A432]	10 to 100 nM	100 to 1000 nM	10 to 100 nM	100 to 1000 nM	100 to 1000 nM	100 to 1000 nM	10 to 100 nM	10 to 100 nM	10 to 100 nM	< 5000 nM
C=CC(=O)N1CCN(C(=O)N(C)[C@H](C(=O)N[C@H]2Cc3nc(cs3)-c3ccc4c(c3)c(c(-c3cccnc3[C@H](C)OC)n4CC)CC(C)(C)COC(=O)[C@@H]3CCCN(N3)C2=O)C(C)C)C[C@@H]1C (atropisomer, axis not shown) [Example A433]	10 to 100 nM	100 to 1000 nM	10 to 100 nM	100 to 1000 nM	10 to 100 nM	100 to 1000 nM	10 to 100 nM	10 to 100 nM	10 to 100 nM	< 5000 nM
C=CC(=O)N1CC(N(C)C(=O)N(C)[C@H](C(=O)N[C@H]2Cc3nc(cs3)-c3ccc4c(c3)c(c(-c3cccnc3[C@H](C)OC)n4CC)CC(C)(C)COC(=O)[C@@H]3CCCN(N3)C2=O)C(C)C)C1 (atropisomer, axis not shown) [Example A435]	< 10 nM	1000 to 10000 nM	100 to 1000 nM	1000 to 10000 nM	100 to 1000 nM	100 to 1000 nM	10 to 100 nM	100 to 1000 nM	< 10 nM	< 5000 nM
C=CC(=O)N1CCCN(C(=O)N(C)[C@H](C(=O)N[C@H]2Cc3nc(cs3)-c3ccc4c(c3)c(c(-c3cccnc3[C@H](C)OC)n4CC)CC(C)(C)COC(=O)[C@@H]3CCCN(N3)C2=O)C(C)C)CC1 (atropisomer, axis not shown) [Example A436]	10 to 100 nM	100 to 1000 nM	100 to 1000 nM	100 to 1000 nM	100 to 1000 nM	100 to 1000 nM	10 to 100 nM	10 to 100 nM	10 to 100 nM	< 5000 nM
C=CC(=O)NCCN(C)C(=O)N(C)[C@H](C(=O)N[C@H]1Cc2nc(cs2)-c2ccc3c(c2)c(c(-c2cccnc2[C@H](C)OC)n3CC)CC(C)(C)COC(=O)[C@@H]2CCCN(N2)C1=O)C(C)C (atropisomer, axis not shown) [Example A438]	10 to 100 nM	1000 to 10000 nM	10 to 100 nM	100 to 1000 nM	100 to 1000 nM	100 to 1000 nM	10 to 100 nM	100 to 1000 nM	10 to 100 nM	< 5000 nM
CCn1c(-c2cccnc2[C@H](C)OC)c2c3cc(ccc31)-c1nc(cs1)C[C@H](NC(=O)[C@H](C1CCCC1)N(C)C(=O)[C@H]1CCN(C(=O)C#CC(C)(C)N3CCC3)C1)C(=O)N1CCC[C@H](N1)C(=O)OCC(C)(C)C2 (atropisomer, axis not shown) [Example A439]	10 to 100 nM	> 10000 nM	100 to 1000 nM	1000 to 10000 nM	1000 to 10000 nM	1000 to 10000 nM	10 to 100 nM	1000 to 10000 nM	< 10 nM	< 5000 nM
CCn1c(-c2cccnc2[C@H](C)OC)c2c3cc(ccc31)-c1nc(cs1)C[C@H](NC(=O)[C@H](C(C)C)N(C)C(=O)[C@H]1CCN(C(=O)C#CC(C)(C)N3CCC3)C1)C(=O)N1CCC[C@H](N1)C(=O)OCC(C)(C)C2 (atropisomer, axis not shown) [Example A440]	10 to 100 nM	1000 to 10000 nM	100 to 1000 nM	1000 to 10000 nM	1000 to 10000 nM	1000 to 10000 nM	10 to 100 nM	1000 to 10000 nM	< 10 nM	< 5000 nM
C=CC(=O)N1CC[C@H](C(=O)N(C)[C@H](C(=O)N[C@H]2Cc3cc(C(F)F)cc(n3)-c3ccc4c(c3)c(c(-c3cccnc3[C@H](C)OC)n4CC)CC(C)(C)COC(=O)[C@@H]3CCCN(N3)C2=O)C(C)C)C1 (atropisomer, axis not shown) [Example A441]	1000 to 10000 nM	> 10000 nM	1000 to 10000 nM	> 10000 nM	> 10000 nM	> 10000 nM	1000 to 10000 nM	> 10000 nM	10 to 100 nM	< 5000 nM
C=CC(=O)N1CC[C@](C#N)(C(=O)N(C)[C@H](C(=O)N[C@H]2Cc3cccc(c3)-c3ccc4c(c3)c(c(-c3cccnc3[C@H](C)OC)n4CC)CC(C)(C)COC(=O)[C@@H]3CCCN(N3)C2=O)C(C)C)C1 (atropisomer, axis not shown) [Example A443]	10 to 100 nM	1000 to 10000 nM	100 to 1000 nM	1000 to 10000 nM	100 to 1000 nM	100 to 1000 nM	10 to 100 nM	1000 to 10000 nM	< 10 nM	< 5000 nM
C=CC(=O)N1CC[C@@](C#N)(C(=O)N(C)[C@H](C(=O)N[C@H]2Cc3cccc(c3)-c3ccc4c(c3)c(c(-c3cccnc3[C@H](C)OC)n4CC)CC(C)(C)COC(=O)[C@@H]3CCCN(N3)C2=O)C(C)C)C1 (atropisomer, axis not shown) [Example A444]	10 to 100 nM	1000 to 10000 nM	100 to 1000 nM	1000 to 10000 nM	1000 to 10000 nM	100 to 1000 nM	10 to 100 nM	1000 to 10000 nM	< 10 nM	< 5000 nM

Source: patent US11566007B2, “Ras inhibitors” (Revolution Medicines, Inc., priority 2019, dated 2023)
